Measurements taken from article PMC7016953 (Cells, 2020).
Like-named read-outs stand apart in the source and are kept apart here.

Target: T1, TRPC3 (Homo sapiens, UniProt Q13507)
T1 construct: expressed in transfected cells
T1 sequence (Q13507 1-848 isoform Q13507-3): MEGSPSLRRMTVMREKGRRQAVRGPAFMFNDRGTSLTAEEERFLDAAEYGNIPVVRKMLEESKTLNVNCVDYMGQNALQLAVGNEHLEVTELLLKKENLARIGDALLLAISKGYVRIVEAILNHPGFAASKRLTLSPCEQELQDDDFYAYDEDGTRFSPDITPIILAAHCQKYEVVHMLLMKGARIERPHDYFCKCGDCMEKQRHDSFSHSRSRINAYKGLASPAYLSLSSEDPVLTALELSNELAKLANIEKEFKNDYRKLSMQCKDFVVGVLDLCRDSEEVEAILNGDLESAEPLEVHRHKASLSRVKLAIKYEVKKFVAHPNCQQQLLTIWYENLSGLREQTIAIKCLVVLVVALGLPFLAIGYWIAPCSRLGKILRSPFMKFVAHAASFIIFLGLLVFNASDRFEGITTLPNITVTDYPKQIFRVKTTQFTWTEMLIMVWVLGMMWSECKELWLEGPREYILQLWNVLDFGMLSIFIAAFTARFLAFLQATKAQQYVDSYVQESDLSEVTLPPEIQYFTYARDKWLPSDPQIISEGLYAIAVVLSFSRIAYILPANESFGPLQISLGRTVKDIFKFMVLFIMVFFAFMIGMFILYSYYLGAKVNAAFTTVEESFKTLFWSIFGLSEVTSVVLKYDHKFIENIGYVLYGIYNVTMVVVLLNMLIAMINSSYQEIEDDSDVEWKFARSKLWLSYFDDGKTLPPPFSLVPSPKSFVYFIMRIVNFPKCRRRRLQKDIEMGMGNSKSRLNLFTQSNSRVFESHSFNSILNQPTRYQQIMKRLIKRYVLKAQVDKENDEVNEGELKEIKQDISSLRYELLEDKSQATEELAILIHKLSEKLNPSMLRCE
Test: Whole-cell patch-clamp recordings in HEK TRPC3-YFP cells
Format: cell-based
Conditions: for EC50: n = 12–27 cells
Experimental: The recordings of TRPC3, TRPC6, or TRPC7 membrane currents in HEK293 or PC12 cells were realized by using a Multiclamp 700B amplifier with a Digidata 1440A digitizer controlled by the PClamp 10 software (all Molecular Devices, Sunnyvale, CA, U.S.A.). Recordings were obtained at room temperature either in the whole-cell or in an outside-out configuration as indicated. Cells were seeded as described above, but at lower density, mounted in a chamber (Warner Instruments, Hamden, CT; U.S.A.), placed onto the stage of an inverted microscope, and perfused with required solution. The standard extracellular solution contained 140 mM NaCl, 5 mM CsCl, 2 mM MgCl2, 1 mM CaCl2, 10 mM HEPES, and 0.035% BSA adjusted to pH 7.4 with NaOH. The composition of standard intracellular solution was 140 mM CsCl, 1 mM MgCl2, 5 mM EGTA, and 10 mM HEPES adjusted to pH 7.25 with CsOH; the osmolarity was 295 mOsm l^−1. In outside-out measurements, the pipette solution contained 5 mM EGTA and 1.1 mM CaCl2 to achieve a calculated free Ca^2+ concentration of 100 nM.
Patch pipettes were pulled from borosilicate glass capillaries BG150F-8P (Science Products, Hofheim, Germany) with a PIP6 pipette puller (HEKA Elektronik, Lambrecht, Germany). […] In all whole-cell measurements, the series resistance was lower than 13 MΩ, and compensated by 70%. If the access was unstable during the experiment (increase in series resistance by more than 15% at the end of the experiment), the cell was omitted from the analysis. To record current/voltage (I/V) curves, voltage ramps (400 mV s^−1) ranging from –100 to +100 mV were applied. Currents were filtered at 3 kHz with a four-pole Bessel filter and sampled at 10 kHz.
Figure 4 Electrophysiological analysis of artemisinin-induced whole-cell currents in HEKTRPC3-YFP cells. The voltage protocol depicted in the box (duration of 0.8 s) was applied in 1 s intervals, and steady state inward and outward current densities averaged at potentials of –100 or +100 mV as well as voltage ramps (0.4 Vs^−1) were extracted from the data. (A) Current densities at +100 and –100 mV, respectively.

Hill coefficient, outward currents (+100 mV): 2.2 | EC50 (+100 mV, read-out: EC50 to activate TRPC3 outward currents): 33 µM | Hill coefficient, inward currents (−100 mV): 2.4 | EC50 (−100 mV, read-out: EC50 to activate TRPC3 inward currents): 25 µM
SMILES: C[C@@H]1CC[C@H]2[C@@H](C)C(=O)O[C@@H]3O[C@@]4(C)CC[C@@H]1[C@]32OO4 [artemisinin]
